Measured values as given in patent publication US20250099406A1, “TREATING CANCERS WITH COMBINATIONS OF ACYLFULVENES WITH IBRUTINIB AND/OR BORTEZOMIB” (LANTERN PHARMA INC., priority 2022, published 2025).
Entries after “also recorded” stand apart in the source; their conditions may differ.

Test system: JeKo-1 MCL xenograft tumors
Assay: JeKo-1 MCL cell line-derived xenograft mouse study
Assay type: in vivo, NOD.Scid mice
Details: for tumor volume: at day 17, on bortezomib (1 mg/kg i.p.) or ibrutinib (50 mg/kg p.o.), tumors refractory; for tumor size: day 16, treated by bortezomib (1 mg/kg, i.p.) or ibrutinib (50 mg/kg, p.o.); for tumor response to single-agent treatment: n=8/arm, low dose LP-284 (2 mg/kg i.v.), bortezomib 1 mg/kg i.p. or ibrutinib 50 mg/kg p.o.
Description: The JeKo-1 MCL cell line-derived xenograft mice (n=8/arm) were treated with vehicle, LP-284 (2 mg/kg or 4 mg/kg, i.v.), bortezomib (1 mg/kg, i.p.), or ibrutinib (50 mg/kg, p.o.) at days indicated by arrows in the graph. Tumor volumes were measured every 2 to 4 days after treatment initiation.
The two drugs were replaced with one cycle of 4 mg/kg LP-284 or the vehicle (saline).
Each treatment arm was then further split into two sub-arms (n=4/sub-arm), one of which was treated by vehicle whereas the other was treated by 4 mg/kg LP-284 (i.v.), as indicated by arrows in the graph.
Five-week old NOD.Scid mice were procured through Envigo (Item 17003F). Mice were fed Teklad irradiated (sterilized) mouse diet and bedded with Teklad irradiated (sterilized) corncob bedding from Envigo (Indianapolis, IN). Mice were housed in Optimice carousel sterile quarters with filtered air supply in disposable cages from Animal Care Systems, Inc. (Centennial, CO). A total of 1×10^7 cells JeKo-1 cells were injected subcutaneously into the right hind flank of each animal using a […] needle. Vehicle (saline), 4 mg/kg or 2 mg/kg LP-284 was administered as an intravenous injection on day 1, 3, 5, 7, 9, 17, 19, 21, 23, 25. 50 mg/kg ibrutinib was administered orally daily on day 1-16. 1 mg/kg bortezomib administered as an intraperitoneal injection on day 1, 4, 7, 10. The ibrutinib and bortezomib arms were further treated with vehicle or 4 mg/kg LP-284 intravenously on day 17, 19, 21, 23, 25. Tumors were measured in two dimensions using calipers, and volume was calculated using the formula:
TumorVolume (mm^3)=w2×l/2
where w=width and l=length, in mm, of the tumor. For this study the calipers were aligned to the tumor edges (the tumors were not squeezed with the caliper).

## C=CC(=O)N1CCC[C@@H](n2nc(-c3ccc(Oc4ccccc4)cc3)c3c(N)ncnc32)C1 [ibrutinib, (R)-1-(3-(4-amino-3-(4-phenoxyphenyl)-1H-pyrazolo[3,4-d]pyrimidin-1-yl)piperidin-1-yl) prop-2-en-1-one]
  tumor volume: ~2000 mm3
  tumor size: ~2000 mm3
  tumor response to single-agent treatment: refractory
Listed as Ibrutinib
  tumor response to single-agent treatment: resulted in refractory cancer after initially controlling cell growth in tumors; also recorded: become refractory and relapse

## CC1=C(CN(O)C(N)=O)C2=C(C)C3(CC3)[C@](C)(O)C(=O)C2=C1 [LP-284, (+)-hydroxyureamethyl acylfulvene]
Bortezomib or ibrutinib pre-treated and refractory xenograft mice switched to 4 mg/kg LP-284 i.v., p<0.001
  survival versus vehicle (Kaplan-Meier): approximately two times longer; also recorded: prolonged survival
  tumor response to single-agent treatment: resulted in refractory cancer after initially controlling cell growth in tumors
One cycle of 4 mg/kg LP-284 i.v. on day 17, 19, 21, 23, 25, tumors ~2000 mm3, n=4/sub-arm, 4 mg/kg
  tumor response after switching bortezomib- or ibrutinib-refractory mice to LP-284: almost completely eliminating; also recorded: near complete tumor regression; also recorded: diminished rapidly

## CC(C)C[C@H](NC(=O)[C@H](Cc1ccccc1)NC(=O)c1cnccn1)B(O)O [bortezomib, [(1R)-3-methyl-1-({(2S)-3-phenyl-2-[(pyrazin-2-ylcarbonyl)amino]propanoyl}amino)butyl]boronic acid]
  tumor volume: ~2000 mm3
  tumor size: ~2000 mm3
  tumor response to single-agent treatment: refractory
Listed as Bortezomib
  tumor response to single-agent treatment: resulted in refractory cancer after initially controlling cell growth in tumors; also recorded: become refractory and relapse
